{
  "source": "patent US7220784B2",
  "about": "“Substituted stilbenes and their reactions” (priority 2000, dated 2007)",
  "key": {"tubulin [1]": {"system": "tubulin", "test": "CD IC50 (Tables 12-26, abbreviation not defined)", "format": "binding"}, "tubulin [2]": {"system": "tubulin", "test": "MA IC50 (Tables 12-26, abbreviation not defined)", "format": "biochemical"}, "[3]": {"system": "L1210 murine leukaemia cell line", "test": "MTT, L1210", "format": "cell-based", "conditions": "Mus musculus; L1210 murine leukaemia cell line (footnote a)"}},
  "data": [
    {"smiles": "COc1ccc(/C=C\\c2cc(O)c(OC)c(OC)c2)cc1O", "note": "[Compound 18, reference compound]", "values": [
      {"measurement": "IC50", "setting": "tubulin [1]", "result": 22, "unit": "µM"},
      {"measurement": "IC50", "setting": "tubulin [2]", "result": "4 to 5", "unit": "µM"},
      {"measurement": "IC50", "setting": "[3]", "result": 0.04, "unit": "µM"}
    ]}
  ]
}
